Results published in patent US20220289728A1, “MODULATORS OF TREX1” (Constellation Pharmaceuticals, Inc., priority 2019, published 2022).
pEC50, pIC50: −log10 of the molar value.

target: T1, full length human TREX1 (Homo sapiens, UniProt Q9NSU2); test: TREX1 Biochemical Assay (fluorescence, dsDNA substrate degradation); conditions: 150 pM TREX1, 60 nM dsDNA substrate, 25 minutes at room temperature
T1 construct: N-terminally His-Tev tagged full length human TREX1; His-TEV (His tag with TEV site) (N); made in house; host or cells: E. coli
T1 sequence (Q9NSU2 1-314): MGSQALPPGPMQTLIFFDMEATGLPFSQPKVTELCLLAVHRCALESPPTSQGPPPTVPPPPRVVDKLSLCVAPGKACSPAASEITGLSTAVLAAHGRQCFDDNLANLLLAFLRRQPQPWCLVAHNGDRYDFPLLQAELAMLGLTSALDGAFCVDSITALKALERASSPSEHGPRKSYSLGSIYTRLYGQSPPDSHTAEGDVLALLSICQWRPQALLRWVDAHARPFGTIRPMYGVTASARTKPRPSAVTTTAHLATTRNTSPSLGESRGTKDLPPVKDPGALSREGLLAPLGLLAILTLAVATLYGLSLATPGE
Description: Degradation of the dsDNA liberates free fluorophore to produce a fluorescent signal. Specifically, 7.5 μL of N-terminally His-Tev tagged full length human TREX1 (expressed in E. coli and purified in house) in reaction buffer (50 mM Tris (pH 7.4), 150 mM NaCl, 2 mM DTT, 0.1 mg/mL BSA, 0.01% (v/v) Tween-20 and 100 mM MgCl2) was added to a 384-well Black ProxiPlate Plus (Perkin Elmer) which already contained compound (150 nL) at varying concentrations as a 10 point dose-response in DMSO. To this was added 7.5 μL of dsDNA substrate (Strand A: 5′ TEX615/GCT AGG CAG 3′; Strand B: 5′ CTG CCT AGC/IAbRQSp (Integrated DNA Technologies)) in reaction buffer. Final concentrations were 150 pM TREX1, 60 nM dsDNA substrate in reaction buffer with 1.0% DMSO (v/v). After 25 minutes at room temperature, reactions were quenched by the addition of 5 μL of stop buffer (same as reaction buffer plus 200 mM EDTA). Final concentrations in the quenched reaction were 112.5 pM TREX1, 45 nM DNA and 50 mM EDTA in a volume of 20 μL. After a 5-minute incubation at room temperature, plates were read in a laser sourced Envision (Perkin-Elmer), measuring fluorescence at 615 nm following excitation w/570 nm light. IC50 values were calculated by comparing the measured fluorescence at 615 nm ratio relative to control wells pre-quenched w/stop buffer (100% inhibition) and no inhibitor (0% inhibition) controls as using non-linear least square four parameter fits and either Genedata or GraphPad Prism (GraphPad Software, Inc.).

First: CN(Cc1c(Cl)cccc1Cl)c1nc(C(=O)Nc2cnoc2)c(O)c(=O)n1C [Example 4]
Second: CN(Cc1ccncc1)c1nc(C(=O)Nc2cnoc2)c(O)c(=O)n1C [Example 37]
The pIC50 of the first is higher: > 7.00 for the first, 6.00 to 7.00 for the second. The first is the more potent here.

`CN(c1nc(C(=O)Nc2cnoc2)c(O)c(=O)n1C)C(c1ccccc1)c1ccccc1Cl` (single isomer, unassigned) [Example 40] and `Cc1cc(C(c2ccccc2Cl)N(C)c2nc(C(=O)Nc3cnoc3)c(O)c(=O)n2C)ccn1` (single isomer, unassigned) [Example 90] cannot be ordered by pIC50: > 7.00 for the first, > 7.00 for the second.

Compared with `Cc1cccnc1C(c1ccccc1)N(C)c1nc(C(=O)Nc2cnoc2)c(O)c(=O)n1C` (single isomer, unassigned) [Example 58], `Cc1ncc(C(c2ccccc2Cl)N(C)c2nc(C(=O)Nc3cnoc3)c(O)c(=O)n2C)cn1` (single isomer, unassigned) [Example 82] is lower in pIC50: > 7.00 for the first, < 5.00 for the second. The first is the more potent here.

`CN(Cc1ccc(C(F)(F)F)cc1)c1nc(C(=O)Nc2cnoc2)c(O)c(=O)n1C` [Example 12] and `CN(C)C(=O)c1ccc(CN(C)c2nc(C(=O)Nc3cnoc3)c(O)c(=O)n2C)cc1` [Example 76] fall in the same range of pIC50: 6.00 to 7.00 for the first, 6.00 to 7.00 for the second.

`CN(Cc1cnn(C)c1)c1nc(C(=O)Nc2cnoc2)c(O)c(=O)n1C` [Example 33] and `CN(C)C(=O)c1cccc(CN(C)c2nc(C(=O)Nc3cnoc3)c(O)c(=O)n2C)c1` [Example 77] fall in the same range of pIC50: 6.00 to 7.00 for the first, 6.00 to 7.00 for the second.

`CN1CCC(C(c2ccccc2)N(C)c2nc(C(=O)Nc3cnoc3)c(O)c(=O)n2C)CC1` (stereo not shown) [Example 49] and `CC(=O)N1CCC(N(C)c2nc(C(=O)Nc3cnoc3)c(O)c(=O)n2C)CC1` [Example 73] fall in the same range of pIC50: 6.00 to 7.00 for the first, 6.00 to 7.00 for the second.

First: CN(Cc1cccnc1-c1cccc(Cl)c1)c1nc(C(=O)Nc2cnoc2)c(O)c(=O)n1C [Example 20]
Second: CN(Cc1ccccc1-c1cccc(Cl)c1)c1nc(C(=O)Nc2cnoc2)c(O)c(=O)n1C [Example 17]
The pIC50 of the first is lower: 6.00 to 7.00 for the first, > 7.00 for the second.

`CN(c1nc(C(=O)Nc2cnoc2)c(O)c(=O)n1C)C1CCCCC1` [Example 72] was tested, and the pIC50 was 6.00 to 7.00.

test system: HCT116 dual cells; test: HCT116 Cell Assay (Lucia luciferase reporter of Type I interferon induction); format: cell-based, human; conditions: 4 h pre-treatment, pBR322/BstNI DNA transfection, Lucia luciferase at 48 h; relative to 10 uM compound 39
From the text: HCT116 dual cells (Invivogen, San Diego, Calif., USA) are derived from the human HCT116 colorectal carcinoma cell line. Cells have been selected for the stable integration of SEAP and Luciferase reporter genes, which expression is under the control of 5 tandem response elements for NF-KB/AP1 and STAT1/STAT2, respectively. The cell line was used to monitor Type I interferon induction and subsequent signaling by measuring the activity of the Lucia luciferase secreted in the culture medium.
HCT116 cells were plated in 96-well plate(s) at 40,000 cells/well in 100 uL DMEM supplemented with 10% FBS and 25 mM Hepes (pH 7.2-7.5). After overnight settling, cells were treated with TREX1i for 4 h (maximum DMSO fraction was 0.1%) before 1.25 ug/mL pBR322/BstNI restriction digest (New England Biolabs, Ipswich, Mass., USA) was transfected with Lipofectamine LTX (ThermoFisher, Grand Island, N.Y., USA), according to product manual recommendations. Briefly, Lipofectamine LTX (0.4 uL/well) was diluted in OptiMEM (5 uL/well). pBR322/BstNI (100 ng/well) was diluted in OptiMEM (5 uL/well) before Plus reagent (0.1 uL/100 ng DNA) was added. After 5 min incubation at room temperature, the DNA mixture was mixed dropwise with the diluted Lipofectamine LTX. After an additional 10 min incubation, the transfection mix (10 uL/well) was added to the cells. Cells were maintained at 37° C. for 48 h before monitoring the Lucia Luciferase activity from the cell culture medium. EC50 values were calculated by comparing the measured luminescence relative to 10 uM compound 39 (100% inhibition) and no inhibitor (0% inhibition) controls using non-linear least-squares four parameter fits in either Genedata Screener or GraphPad Prism (GraphPad Software, Inc.).

Compared with `CN(c1nc(C(=O)Nc2cnoc2)c(O)c(=O)n1C)C(c1ccccc1)c1ccccc1Cl` (single isomer, unassigned) [Example 40], `Cc1cc(C(c2ccccc2Cl)N(C)c2nc(C(=O)Nc3cnoc3)c(O)c(=O)n2C)ccn1` (single isomer, unassigned) [Example 90] is lower in pEC50: > 6.00 for the first, 5.00 to 6.00 for the second.

same assay, conditions: Homo sapiens, HCT-116, 4 h pre-treatment, pBR322/BstNI DNA transfection, Lucia luciferase at 48 h; relative to 10 uM compound 39

`CN(Cc1c(Cl)cccc1Cl)c1nc(C(=O)Nc2cnoc2)c(O)c(=O)n1C` [Example 4] and `Cc1cccnc1C(c1ccccc1)N(C)c1nc(C(=O)Nc2cnoc2)c(O)c(=O)n1C` (single isomer, unassigned) [Example 58] fall in the same range of pEC50: 5.00 to 6.00 for the first, 5.00 to 6.00 for the second.

target: T2, human TREX2 (residues M44-A279) (Homo sapiens, UniProt Q9BQ50); test: TREX2 Biochemical Assay (fluorescence, dsDNA substrate degradation); conditions: 2.5 nM TREX2, 60 nM dsDNA substrate, 25 minutes at room temperature
T2 construct: human TREX2 (residues M44-A279, expressed in E. coli); His-TEV (His tag with TEV site) (N); made in house; host or cells: E. coli
T2 sequence (Q9BQ50 44-279 isoform Q9BQ50-1): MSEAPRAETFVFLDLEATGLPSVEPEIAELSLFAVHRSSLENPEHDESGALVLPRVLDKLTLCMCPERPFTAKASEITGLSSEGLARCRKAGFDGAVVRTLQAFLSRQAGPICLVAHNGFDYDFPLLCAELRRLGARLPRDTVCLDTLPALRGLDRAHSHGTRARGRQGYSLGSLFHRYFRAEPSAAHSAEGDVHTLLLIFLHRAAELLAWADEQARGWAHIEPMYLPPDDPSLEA
Description: Degradation of the dsDNA liberates free fluorophore to produce a fluorescent signal. Specifically, 7.5 μL of N-terminally His-Tev tagged human TREX2 (residues M44-A279, expressed in E. coli and purified in house) in reaction buffer (50 mM Tris (pH 7.4), 150 mM NaCl, 2 mM DTT, 0.1 mg/mL BSA, 0.01% (v/v) Tween-20 and 100 mM MgCl2) was added to a 384-well Black ProxiPlate Plus (Perkin Elmer) which already contained compound (150 nL) at varying concentrations as a 10 point dose-response in DMSO. To this was added 7.5 μL of dsDNA substrate (Strand A: 5′ TEX615/GCT AGG CAG 3′; Strand B: 5′ CTG CCT AGC/IAbRQSp (IDT)) in reaction buffer. Final concentrations were 2.5 nM TREX2, 60 nM dsDNA substrate in reaction buffer with 1.0% DMSO (v/v). After 25 minutes at room temperature, reactions were quenched by the addition of 5 μL of stop buffer (same as reaction buffer plus 200 mM EDTA). Final concentrations in the quenched reaction mixture were […] TREX2, 45 nM DNA and 50 mM EDTA in a volume of 20 μL. After a 5-minute incubation at room temperature, plates were read in a laser sourced Envision (Perkin-Elmer), measuring fluorescence at 615 nm following excitation w/570 nm light. IC50 values were calculated by comparing the measured fluorescence at 615 nm ratio relative to control wells pre-quenched w/stop buffer (100% inhibition) and no inhibitor (0% inhibition) controls as using non-linear least square four parameter fits and either Genedata or GraphPad Prism (GraphPad Software, Inc.).

Compared with `CN(Cc1c(Cl)cccc1Cl)c1nc(C(=O)Nc2cnoc2)c(O)c(=O)n1C` [Example 4], `CN(Cc1ccncc1)c1nc(C(=O)Nc2cnoc2)c(O)c(=O)n1C` [Example 37] is lower in pIC50: > 6.00 for the first, 4.00 to 5.00 for the second. The first is the more potent here.

`CN(c1nc(C(=O)Nc2cnoc2)c(O)c(=O)n1C)C(c1ccccc1)c1ccccc1Cl` (single isomer, unassigned) [Example 40] and `Cc1cc(C(c2ccccc2Cl)N(C)c2nc(C(=O)Nc3cnoc3)c(O)c(=O)n2C)ccn1` (single isomer, unassigned) [Example 90] cannot be ordered by pIC50: > 6.00 for the first, > 6.00 for the second.

First: Cc1cccnc1C(c1ccccc1)N(C)c1nc(C(=O)Nc2cnoc2)c(O)c(=O)n1C (single isomer, unassigned) [Example 58]
Second: Cc1ncc(C(c2ccccc2Cl)N(C)c2nc(C(=O)Nc3cnoc3)c(O)c(=O)n2C)cn1 (single isomer, unassigned) [Example 82]
The pIC50 of the first is higher: 5.00 to 6.00 for the first, < 4.00 for the second.

`CN(Cc1ccc(C(F)(F)F)cc1)c1nc(C(=O)Nc2cnoc2)c(O)c(=O)n1C` [Example 12] and `CN(C)C(=O)c1ccc(CN(C)c2nc(C(=O)Nc3cnoc3)c(O)c(=O)n2C)cc1` [Example 76] fall in the same range of pIC50: 4.00 to 5.00 for the first, 4.00 to 5.00 for the second.

`CN(Cc1cnn(C)c1)c1nc(C(=O)Nc2cnoc2)c(O)c(=O)n1C` [Example 33] and `CN(C)C(=O)c1cccc(CN(C)c2nc(C(=O)Nc3cnoc3)c(O)c(=O)n2C)c1` [Example 77] fall in the same range of pIC50: 4.00 to 5.00 for the first, 4.00 to 5.00 for the second.

`CN1CCC(C(c2ccccc2)N(C)c2nc(C(=O)Nc3cnoc3)c(O)c(=O)n2C)CC1` (stereo not shown) [Example 49] and `CC(=O)N1CCC(N(C)c2nc(C(=O)Nc3cnoc3)c(O)c(=O)n2C)CC1` [Example 73] fall in the same range of pIC50: 4.00 to 5.00 for the first, 4.00 to 5.00 for the second.

`CN(Cc1cccnc1-c1cccc(Cl)c1)c1nc(C(=O)Nc2cnoc2)c(O)c(=O)n1C` [Example 20] and `CN(Cc1ccccc1-c1cccc(Cl)c1)c1nc(C(=O)Nc2cnoc2)c(O)c(=O)n1C` [Example 17] fall in the same range of pIC50: 5.00 to 6.00 for the first, 5.00 to 6.00 for the second.

`CN(c1nc(C(=O)Nc2cnoc2)c(O)c(=O)n1C)C1CCCCC1` [Example 72] showed a pIC50 of 5.00 to 6.00.
